These results are taken from the supplement of paper PMC11208160.
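Further: IS621 recombinase and bridge RNA in Escherichia coli cells.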

The nature of this data set: recombinant barcode read abundance after kanamycin selection (control-corrected) (log10(CPM+1)); higher = more efficient recombination; sequences stand for … in AGTGCAGAGAAAATCGGCCAGTTTTCTCTGCCTGCAGTCCGCATGCCGT…AGATTTATGCAGCGGACTGCCTTTCTCCCAAAGTGATAAACCGGACAGTATCATGGACCGGTTTTCCCGGTAATCCGTATTTGCAAGGTTGGTTTCACT; site = the 11-nt target. The procedure, abridged:
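Recombination efficiency comes from barcode counts at recombinant junctions, converted to counts per million, averaged and corrected against the control. Values appear as log10(CPM+1). They were obtained from a pooled E. coli screen in which each oligo paired a target with an IS621 bridge RNA target-binding loop, and cells were plated in duplicate on chloramphenicol/ampicillin LB agar or on chloramphenicol/ampicillin/kanamycin with 0.1 mM IPTG.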
For the sequence “GATAGCTCTTGGGTTCTAACCTGTTGCCT (site TATAGCTCTAG)”, the “recombinant barcode read abundance (log10)” value stood at 0.509.
Take “GATAGGGCTTGGGTTCTAACCTGTTGCCT (site GATAGGGCTAG)”: the “recombinant barcode read abundance (log10)” value came to 1.09.
Regarding “GATAGGGCTTGGGTTCTAACCTGTTGCCT (site TTATACACTGA)”, the “recombinant barcode read abundance (log10)” value is 0.135.
For the sequence “GATCAGCCTTGGGTTCTAACCTGTTGCCT (site GATCAGCCTAG)”, the “recombinant barcode read abundance (log10)” value was determined as 0.445.
As for “GATCAGCCTTGGGTTCTAACCTGTTGCCT (site GATCTGCCTAG)”, the “recombinant barcode read abundance (log10)” value is 0.063.
On to “GATCCTACTTGGGTTCTAACCTGTTGCCA (site GATCCTACTTG)”, for which the “recombinant barcode read abundance (log10)” value amounted to 0.315.
“GATCCTACTTGGGTTCTAACCTGTTGCCA (site GATGCTACTTG)”: the “recombinant barcode read abundance (log10)” value is 0.0449.
On to “GATCGAACTTGGGTTCTAACCTGTTGCCT (site AATCGAACTAG)”, for which the “recombinant barcode read abundance (log10)” value came out at 0.15.
In the case of “GATCGAACTTGGGTTCTAACCTGTTGCCT (site GATCGAACTAG)”, the “recombinant barcode read abundance (log10)” value stood at 0.204.
Regarding “GATCGAGCTTGGGTTCTAACCTGTTGCAG (site GATCGAGCTCT)”, the “recombinant barcode read abundance (log10)” value turned out to be 1.42.
For “GATCGAGCTTGGGTTCTAACCTGTTGCAG (site TGGACGACTAA)”, the “recombinant barcode read abundance (log10)” value was 0.178.
Then “GATCGAGCTTGGGTTCTAACCTGTTGCCT (site GATCGAGCTAG)”, with 1.12; and “GATCGAGCTTGGGTTCTAACCTGTTGCCT (site GATCGCGCTAG)”, with 0; and “GATCGCGCTTGGGTTCTAACCTGTTGCCT (site GATCGAGCTAG)”, with 0.133.
“GATCGCGCTTGGGTTCTAACCTGTTGCCT (site GATCGCGCTAG)”: the “recombinant barcode read abundance (log10)” value turned out to be 0.231.
To “GATCTAGCTTGGGTTCTAACCTGTTGCAT (site CATATAGCTAT)” belongs 0.0793.
With “GATCTAGCTTGGGTTCTAACCTGTTGCAT (site GATCTAGCTAT)”, the “recombinant barcode read abundance (log10)” value came to 0.574.
As to “GATGAGTCTTGGGTTCTAACCTGTTGCTT (site GATGAGTCTAA)”, the “recombinant barcode read abundance (log10)” value was found to be 1.8.
For the sequence “GATGAGTCTTGGGTTCTAACCTGTTGCTT (site GATGAGTCTAG)”, the “recombinant barcode read abundance (log10)” value turned out to be 1.34.
As to “GATGATACTTGGGTTCTAACCTGTTGCGT (site GATGATACTAC)”, the “recombinant barcode read abundance (log10)” value is 2.51.
With “GATGATACTTGGGTTCTAACCTGTTGCGT (site GTTTATACTAC)”, the “recombinant barcode read abundance (log10)” value is 0.0738.
As to “GATGCCACTTGGGTTCTAACCTGTTGCCT (site GATCCCACTAG)”, the “recombinant barcode read abundance (log10)” value worked out at 0.182.
As for “GATGCCACTTGGGTTCTAACCTGTTGCCT (site GATGCCACTAG)”, the “recombinant barcode read abundance (log10)” value was 1.53.
Then “GATGGTACTTGGGTTCTAACCTGTTGCAT (site ACGCACTCTCG)”, with 0.0471; and “GATGGTACTTGGGTTCTAACCTGTTGCAT (site GATGGTACTAT)”, with 1.46; and “GATGTATCTTGGGTTCTAACCTGTTGCCT (site GAGGTAGCTAG)”, with 0.0384.
Regarding “GATGTATCTTGGGTTCTAACCTGTTGCCT (site GATGTATCTAG)”, the “recombinant barcode read abundance (log10)” value was 1.09.
Then “GATTATTCTTGGGTTCTAACCTGTTGCCT (site GAATATTCTAG)”, with 0.0621; and “GATTATTCTTGGGTTCTAACCTGTTGCCT (site GACTATTCTAG)”, with 0.0521.
Take “GATTATTCTTGGGTTCTAACCTGTTGCCT (site GAGTATTCTAG)”: the “recombinant barcode read abundance (log10)” value amounted to 0.138.
Consider “GATTATTCTTGGGTTCTAACCTGTTGCCT (site GATTATTCTAG)”, for which the “recombinant barcode read abundance (log10)” value is 0.
Then “GATTCGACTTGGGTTCTAACCTGTTGCGT (site CTGGACCCTCG)”, with 0.0133; and “GATTCGACTTGGGTTCTAACCTGTTGCGT (site GATTCGACTAC)”, with 1.02; and “GATTCTCCTTGGGTTCTAACCTGTTGCAT (site GATTCTCCTAA)”, with 0.246.
For the sequence “GATTCTCCTTGGGTTCTAACCTGTTGCAT (site GATTCTCCTAC)”, the “recombinant barcode read abundance (log10)” value was found to be 0.143.
Take “GATTCTCCTTGGGTTCTAACCTGTTGCAT (site GATTCTCCTAG)”: the “recombinant barcode read abundance (log10)” value is 0.0815.
Take “GATTCTCCTTGGGTTCTAACCTGTTGCAT (site GATTCTCCTAT)”: the “recombinant barcode read abundance (log10)” value came out at 0.197.
On to “GATTCTTCTTGGGTTCTAACCTGTTGCCT (site GATTCTTCTAG)”, for which the “recombinant barcode read abundance (log10)” value was found to be 0.1.
On to “GATTCTTCTTGGGTTCTAACCTGTTGCCT (site GCTTCTTCTAG)”, for which the “recombinant barcode read abundance (log10)” value was 0.024.
With “GATTCTTCTTGGGTTCTAACCTGTTGCCT (site GGTTCTTCTAG)”, the “recombinant barcode read abundance (log10)” value is 0.232.
On to “GATTCTTCTTGGGTTCTAACCTGTTGCCT (site GTTTCTTCTAG)”, for which the “recombinant barcode read abundance (log10)” value came to 0.
On to “GATTGGACTTGGGTTCTAACCTGTTGCTT (site AATTGGACTAA)”, for which the “recombinant barcode read abundance (log10)” value was determined as 0.38.
In the case of “GATTGGACTTGGGTTCTAACCTGTTGCTT (site CATTGGACTAA)”, the “recombinant barcode read abundance (log10)” value is 0.421.
For the sequence “GATTGGACTTGGGTTCTAACCTGTTGCTT (site GATTGGACTAA)”, the “recombinant barcode read abundance (log10)” value was 0.661.
Then “GATTGGACTTGGGTTCTAACCTGTTGCTT (site TATTGGACTAA)”, with 0.128; and “GCAAAGCCTTGGGTTCTAACCTGTTGCCT (site GCAAAGCCTAG)”, with 1.18.
To “GCAAAGCCTTGGGTTCTAACCTGTTGCCT (site GCACAGACTAG)” belongs 0.195.
In the case of “GCAAGGACTTGGGTTCTAACCTGTTGCAG (site GCAAGGACTCT)”, the “recombinant barcode read abundance (log10)” value is 2.6.
On to “GCAAGGACTTGGGTTCTAACCTGTTGCAG (site GCACGGACTCT)”, for which the “recombinant barcode read abundance (log10)” value worked out at 0.165.
As to “GCAAGGACTTGGGTTCTAACCTGTTGCAG (site GCAGGGACTCT)”, the “recombinant barcode read abundance (log10)” value was 0.76.
On to “GCAAGGACTTGGGTTCTAACCTGTTGCAG (site GCATGGACTCT)”, for which the “recombinant barcode read abundance (log10)” value was 0.587.
Regarding “GCAAGGCCTTGGGTTCTAACCTGTTGCCT (site ACAAGGCCTAG)”, the “recombinant barcode read abundance (log10)” value was determined as 0.0435.
As to “GCAAGGCCTTGGGTTCTAACCTGTTGCCT (site CCAAGGCCTAG)”, the “recombinant barcode read abundance (log10)” value was determined as 0.721.
For the sequence “GCAAGGCCTTGGGTTCTAACCTGTTGCCT (site GCAAGGCCTAG)”, the “recombinant barcode read abundance (log10)” value is 0.418.
Regarding “GCAAGGCCTTGGGTTCTAACCTGTTGCCT (site TCAAGGCCTAG)”, the “recombinant barcode read abundance (log10)” value came out at 0.0143.
Then “GCAATTACTTGGGTTCTAACCTGTTGCTT (site GCAATTACTAA)”, with 0.0238; and “GCAATTACTTGGGTTCTAACCTGTTGCTT (site TGGGGCCCTCG)”, with 0.078; and “GCACCACCTTGGGTTCTAACCTGTTGCCT (site GCACAACCTAG)”, with 0.0145.
Consider “GCACCACCTTGGGTTCTAACCTGTTGCCT (site GCACCACCTAG)”, for which the “recombinant barcode read abundance (log10)” value came out at 1.06.
On to “GCACCACCTTGGGTTCTAACCTGTTGCCT (site GCACGACCTAG)”, for which the “recombinant barcode read abundance (log10)” value is 0.178.
Then “GCACCACCTTGGGTTCTAACCTGTTGCCT (site GCACTACCTAG)”, with 0.127; and “GCACCGCCTTGGGTTCTAACCTGTTGCCT (site ACACCGCCTAG)”, with 0.667; and “GCACCGCCTTGGGTTCTAACCTGTTGCCT (site CCACCGCCTAG)”, with 0.0991.
Take “GCACCGCCTTGGGTTCTAACCTGTTGCCT (site GCACCGCCTAG)”: the “recombinant barcode read abundance (log10)” value amounted to 1.09.
As to “GCACCGCCTTGGGTTCTAACCTGTTGCCT (site TCACCGCCTAG)”, the “recombinant barcode read abundance (log10)” value came out at 0.0378.
Take “GCACGCCCTTGGGTTCTAACCTGTTGCCT (site GCACGCCCTAG)”: the “recombinant barcode read abundance (log10)” value stood at 0.711.
Take “GCACGCCCTTGGGTTCTAACCTGTTGCCT (site TCCCGCCCTAG)”: the “recombinant barcode read abundance (log10)” value was determined as 0.0743.
Turning to “GCACGCCCTTGGGTTCTAACCTGTTGCTT (site GCACGCCCTAA)”, the “recombinant barcode read abundance (log10)” value amounted to 0.737.
As to “GCACGCCCTTGGGTTCTAACCTGTTGCTT (site GCGCGGCCTAA)”, the “recombinant barcode read abundance (log10)” value is 0.181.
In the case of “GCACTCCCTTGGGTTCTAACCTGTTGCCT (site GCACTCCCTAG)”, the “recombinant barcode read abundance (log10)” value was found to be 0.0516.
With “GCACTCCCTTGGGTTCTAACCTGTTGCCT (site GCCCTCCCTAG)”, the “recombinant barcode read abundance (log10)” value is 0.0585.
Consider “GCACTCCCTTGGGTTCTAACCTGTTGCCT (site GCGCTCCCTAG)”, for which the “recombinant barcode read abundance (log10)” value is 0.199.
Regarding “GCACTCCCTTGGGTTCTAACCTGTTGCCT (site GCTCTCCCTAG)”, the “recombinant barcode read abundance (log10)” value came to 0.831.
Then “GCAGAGTCTTGGGTTCTAACCTGTTGCCT (site GAAGAGTCTAG)”, with 0.201.
Turning to “GCAGAGTCTTGGGTTCTAACCTGTTGCCT (site GCAGAGTCTAG)”, the “recombinant barcode read abundance (log10)” value was 2.1.
Then “GCAGAGTCTTGGGTTCTAACCTGTTGCCT (site GGAGAGTCTAG)”, with 0.0924; and “GCAGAGTCTTGGGTTCTAACCTGTTGCCT (site GTAGAGTCTAG)”, with 1.06.
